How the values were obtained:
S. aureus Newman [1] = test: fitness (endpoint OD595 vs no drug) (fraction); higher = more growth
Summary of the method: (§1)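 At 37 °C, bacteria in TSB, LB Lennox or CY were grown in 384-well plates from a starting OD595 of 0.01. OD595 was measured every 30 min for 14 h, with the first reading used as background. Fitness is the optical density at the switch to stationary phase as a fraction of the robust mean of no-drug control wells, capped at 1.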

S. aureus DSM 20231 [2] = test: as above
Summary of the method: as §1

B. subtilis 168 [3] = test: as above
Summary of the method: as §1

S. pneumoniae D39V = test: Bliss interaction score (quartile over a dose matrix) (fitness difference); higher = more antagonism (negative = synergy)
Summary of the method: (§2)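 Quartiles summarise the Bliss score over technical, biological and donor/recipient replicates, where the score is observed minus expected fitness under a product model. Expected fitness uses single-drug values inferred from combination data. Fitness is OD595 at entry into stationary phase over the plate's robust no-drug mean, capped at 1.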

S. aureus Newman [4] = test: as above
Summary of the method: as §2

S. aureus DSM 20231 [5] = test: as above
Summary of the method: as §2

B. subtilis 168 [6] = test: as above
Summary of the method: as §2
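Throughout, for Bliss interaction score (quartile over a dose matrix): first quartile when negative (synergy) and third quartile when positive (antagonism).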

CC[C@H]1OC(=O)[C@H](C)[C@@H](O[C@H]2C[C@@](C)(OC)[C@@H](O)[C@H](C)O2)[C@H](C)[C@@H](O[C@@H]2O[C@H](C)C[C@H](N(C)C)[C@H]2O)[C@](C)(O)C[C@@H](C)CN(C)[C@H](C)[C@@H](O)[C@]1(C)O [Azithromycin] + COc1c(N2C[C@@H]3CCCN[C@@H]3C2)c(F)cc2c(=O)c(C(=O)O)cn(C3CC3)c12 [Moxifloxacin]
fitness
Settings	first compound 0.125 µg/mL	first compound 0.25 µg/mL	first compound 0.5 µg/mL	first compound 1 µg/mL	first compound 2 µg/mL
B. subtilis 168 [3], partner 0.0312 µg/mL	–	–	0.0678	0.0582	0.0414
B. subtilis 168 [3], partner 0.0625 µg/mL	–	0.0511	0.0366	0.0237	0.0289
B. subtilis 168 [3], partner 0.125 µg/mL	–	0.0301	0.0372	0.0336	0.02
B. subtilis 168 [3], partner 2 µg/mL	–	0.027	0.0186	0.0208	–
B. subtilis 168 [3], partner 4 µg/mL	–	0.0147	0.0272	0.0194	–
B. subtilis 168 [3], partner 8 µg/mL	–	0.0347	0.042	0.0214	–
S. aureus DSM 20231 [2], partner 0.0075 µg/mL	0.727	0.747	–	–	–
S. aureus DSM 20231 [2], partner 0.015 µg/mL	0.687	0.772	0.592	–	–
S. aureus DSM 20231 [2], partner 0.03 µg/mL	0.656	0.737	0.556	–	–
S. aureus Newman [1], partner 0.0075 µg/mL	0.717	0.723	–	–	–
S. aureus Newman [1], partner 0.015 µg/mL	0.666	–	0.415	–	–
S. aureus Newman [1], partner 0.03 µg/mL	–	–	0.307	–	–

fitness, S. aureus DSM 20231 [2], one replicate
Settings	first compound 0.125 µg/mL	first compound 0.25 µg/mL	first compound 0.5 µg/mL
partner 0.06 µg/mL	0.633	0.623	0.587
partner 0.12 µg/mL	0.528	0.559	0.452

Settings	Bliss interaction score
B. subtilis 168 [6]	0.0244
S. aureus DSM 20231 [5]	0.0773
S. aureus Newman [4]	0.118
S. pneumoniae D39V	0.0652

CC[C@H]1OC(=O)[C@H](C)[C@@H](O[C@H]2C[C@@](C)(OC)[C@@H](O)[C@H](C)O2)[C@H](C)[C@@H](O[C@@H]2O[C@H](C)C[C@H](N(C)C)[C@H]2O)[C@](C)(O)C[C@@H](C)CN(C)[C@H](C)[C@@H](O)[C@]1(C)O [Azithromycin] + COc1ccc(C[C@H](N)C(=O)N[C@H]2[C@@H](O)[C@H](n3cnc4c(N(C)C)ncnc43)O[C@@H]2CO)cc1 [Puromycin]
fitness
Settings	partner 0.39 µg/mL	partner 0.78 µg/mL	partner 1.56 µg/mL
B. subtilis 168 [3], first compound 0.25 µg/mL	0.888	0.913	0.95
B. subtilis 168 [3], first compound 0.5 µg/mL	0.828	0.815	0.82
S. aureus DSM 20231 [2], first compound 0.125 µg/mL	0.849	0.863	0.923
S. aureus DSM 20231 [2], first compound 0.25 µg/mL	0.881	0.936	0.891
S. aureus Newman [1], first compound 0.125 µg/mL	0.915	0.905	0.945
S. aureus Newman [1], first compound 0.25 µg/mL	0.884	0.836	0.889
S. aureus Newman [1], first compound 0.5 µg/mL	0.559	–	0.524

fitness, S. aureus DSM 20231 [2], one replicate
Settings	first compound 0.125 µg/mL	first compound 0.25 µg/mL	first compound 0.5 µg/mL
partner 3.12 µg/mL	≥ 1	0.915	0.293
partner 6.24 µg/mL	0.615	0.237	0.0525

Settings	Bliss interaction score
B. subtilis 168 [6]	-0.0345
S. aureus DSM 20231 [5]	-0.0839
S. aureus Newman [4]	-0.0828
S. pneumoniae D39V	-0.0719

CC[C@H]1OC(=O)[C@H](C)[C@@H](O[C@H]2C[C@@](C)(OC)[C@@H](O)[C@H](C)O2)[C@H](C)[C@@H](O[C@@H]2O[C@H](C)C[C@H](N(C)C)[C@H]2O)[C@](C)(O)C[C@@H](C)CN(C)[C@H](C)[C@@H](O)[C@]1(C)O [Azithromycin] + COc1cccc2c1C(=O)c1c(O)c3c(c(O)c1C2=O)C[C@@](O)(C(=O)CO)C[C@@H]3O[C@H]1C[C@H](N)[C@H](O)[C@H](C)O1 [Doxorubicin]
fitness
Settings	partner 0.625 µg/mL	partner 1.25 µg/mL	partner 2.5 µg/mL
B. subtilis 168 [3], first compound 0.25 µg/mL	0.964	0.92	0.791
B. subtilis 168 [3], first compound 0.5 µg/mL	0.879	0.847	0.767
S. aureus DSM 20231 [2], first compound 0.125 µg/mL	0.811	0.794	0.781
S. aureus DSM 20231 [2], first compound 0.25 µg/mL	0.811	0.824	0.778
S. aureus DSM 20231 [2], first compound 0.5 µg/mL	0.62	0.672	0.569
S. aureus Newman [1], first compound 0.125 µg/mL	0.777	0.775	0.735
S. aureus Newman [1], first compound 0.25 µg/mL	0.827	0.779	0.77
S. aureus Newman [1], first compound 0.5 µg/mL	0.659	0.665	0.561

B. subtilis 168 [3], first compound 2 µg/mL, one replicate
Settings	fitness
partner 0.625 µg/mL	0.358
partner 1.25 µg/mL	0.176
partner 2.5 µg/mL	0.0297

Settings	Bliss interaction score
B. subtilis 168 [6]	0.164
S. aureus DSM 20231 [5]	0.115
S. aureus Newman [4]	0.0458
S. pneumoniae D39V	-0.0571

Reference: the supplement of paper PMC10627819
